From patent publication US20100267561A1, “HERBICIDAL PYRIDAZINONE DERIVATIVES” (priority 2007, published 2010)
Read-outs that look alike come from different tables or passages of the source.

How the values were obtained:
Experiment in all cases: Test A pre-/postemergence plant response
Format in all cases: in vivo
[1] = tested on: giant foxtail (Setaria faberi); conditions: for pest or weed control at 125 g/ha / pest or weed control at 500 g/ha / pest or weed control at 31 g/ha: Setaria faberi, 240 h, read-out: Plant response rating, Foxtail, Giant
In short: (§1)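 Seeds were planted in blended loam soil and sand, then treated preemergence by directed soil spray. At that time, emerged plants (one- to two-leaf, 2–10 cm) received postemergence applications of the same surfactant-containing formulation. Injury was assessed visually on a 0–100 scale after approximately 10 days.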

[2] = tested on: large crabgrass (Digitaria sanguinalis); conditions: for pest or weed control at 125 g/ha / pest or weed control at 500 g/ha / pest or weed control at 31 g/ha: Digitaria sanguinalis, 240 h, read-out: Plant response rating, Crabgrass, Large
In short: as §1

[3] = tested on: velvetleaf (Abutilon theophrasti)
In short: as §1

[4] = Postemergence, 125 g ai/ha, 0 to 100 scale, 0 no effect, 100 complete control
[5] = Postemergence, 500 g ai/ha, 0 to 100 scale, 0 no effect, 100 complete control
[6] = Preemergence, 125 g ai/ha, 0 to 100 scale (0 no effect, 100 complete control)
[7] = Preemergence, 500 g ai/ha, 0 to 100 scale (0 no effect, 100 complete control)
[8] = Postemergence, 31 g ai/ha, 0 to 100 scale, 0 no effect, 100 complete control
[9] = Preemergence, 31 g ai/ha, 0 to 100 scale, 0 is no effect, 100 is complete control
[10] = post-emergence, Postemergence, 125 g ai/ha, 0 to 100 scale, 0 no effect, 100 complete control
[11] = post-emergence, Postemergence, 500 g ai/ha, 0 to 100 scale, 0 no effect, 100 complete control
[12] = pre-emergence, Preemergence, 125 g ai/ha, 0 to 100 scale (0 no effect, 100 complete control)
[13] = pre-emergence, Preemergence, 500 g ai/ha, 0 to 100 scale (0 no effect, 100 complete control)
[14] = post-emergence, Postemergence, 31 g ai/ha, 0 to 100 scale (0 no effect, 100 complete control)
[15] = pre-emergence, Preemergence, 31 g ai/ha, 0 to 100 scale, 0 is no effect, 100 is complete control

Row | Molecule | Plant response rating, Foxtail, Giant [1, 4] | Plant response rating, Foxtail, Giant [1, 5] | Plant response rating, Foxtail, Giant [1, 6] | Plant response rating, Foxtail, Giant [1, 7] | Plant response rating, Crabgrass, Large [2, 4] | Plant response rating, Crabgrass, Large [2, 5] | Plant response rating, Crabgrass, Large [2, 6] | Plant response rating, Crabgrass, Large [2, 7] | Plant response rating, Velvetleaf [3, 4] | Plant response rating, Velvetleaf [3, 5] | Plant response rating, Velvetleaf [3, 6] | Plant response rating, Velvetleaf [3, 7] | Plant response rating, Foxtail, Giant [1, 8] | Plant response rating, Foxtail, Giant [1, 9] | Plant response rating, Crabgrass, Large [2, 8] | Plant response rating, Crabgrass, Large [2, 9] | further results
1 | 5-[3-(4-chlorophenyl)-5-methyl-1H-pyrazol-1-yl]-1,6-dihydro-1-methyl-6-oxo-4-pyridazinyl-1-methylethyl carbonate [Compound 7] | 90 | 90 | 100 | 100 | 80 | 90 | 100 | 100 | 20 | 40 | 0 | 30 | – | – | – | – | –
2 | Cc1cc(-c2ccc(Br)cc2)nn1-c1c(OC(=O)C2CC2)cnn(C)c1=O [Compound 5] | 100 | 100 | 100 | 100 | 100 | 100 | 100 | 100 | 20 | 50 | 0 | 20 | – | – | – | – | –
3 | CCc1cc(-c2ccc(C(F)(F)F)cc2)nn1-c1c(OC(=O)OC(C)C)cnn(C)c1=O [Compound 12] | 80 | 100 | 100 | 100 | 90 | 100 | 100 | 100 | 0 | 0 | 0 | 0 | – | – | – | – | –
4 | CCc1cc(-c2ccc(C(F)(F)F)cc2)nn1-c1c(O)c(C)nn(C)c1=O [Compound 16] | 100 | 100 | 100 | 100 | 90 | 100 | 90 | 100 | 0 | 0 | 0 | 0 | – | – | – | – | –
5 | Cc1cc(-c2ccc(C(F)(F)F)cc2)nn1-c1c(O)c(C(C)C)nn(C)c1=O [Compound 27] | 50 | 90 | 80 | 90 | 60 | 80 | 80 | 100 | 0 | 0 | 0 | 0 | – | – | – | – | –
6 | CCCc1cc(-c2ccc(C(F)(F)F)cc2)nn1-c1c(O)cnn(C)c1=O [Compound 72] | 100 | – | 90 | – | 90 | – | 60 | – | – | – | – | – | 90 | 70 | 20 | 0 | –
7 | CCc1cc(-c2ccc(Br)cc2)nn1-c1c(O)cnn(CC(F)(F)F)c1=O [Compound 73] | 100 | – | 30 | – | 100 | – | 50 | – | – | – | – | – | 50 | 0 | 40 | 0 | –
8 | CCc1cc(-c2ccc(Br)cc2)nn1-c1c(O)c(C)nn(C)c1=O [Compound 74] | 100 | – | 100 | – | 100 | – | 90 | – | – | – | – | – | 70 | 90 | 60 | 50 | –
9 | CCCc1cc(-c2ccc(Cl)cc2)nn1-c1c(O)cnn(C)c1=O [Compound 76] | 90 | – | 100 | – | 100 | – | 80 | – | – | – | – | – | 70 | 70 | 20 | 20 | –
10 | Cc1cc(-c2ccc(Br)cc2)nn1-c1c(O)cnn(C2CCCCO2)c1=O (centres unmarked) [Compound 77, 4-[3-(4-bromophenyl)-5-methyl-1H-pyrazol-1-yl]-5-hydroxy-2-(tetrahydro-2H-pyran-2-yl)-3(2H)-pyridazinone] | – | – | – | – | – | – | – | – | – | – | – | – | – | – | – | – | pest or weed control at 125 g/ha [1, 10]: 80%; pest or weed control at 500 g/ha [1, 11]: 100%; pest or weed control at 125 g/ha [1, 12]: 30%; pest or weed control at 500 g/ha [1, 13]: 100%; pest or weed control at 125 g/ha [2, 10]: 70%; pest or weed control at 500 g/ha [2, 11]: 100%; pest or weed control at 125 g/ha [2, 12]: 10%; pest or weed control at 500 g/ha [2, 13]: 100%
11 | Cc1nn(C)c(=O)c(-c2nc(-c3ccc(Cl)cc3)sc2C)c1O [Compound 79, 4-[2-(4-chlorophenyl)-5-methyl-4-thiazolyl]-5-hydroxy-2,6-dimethyl-3(2H)-pyridazinone] | – | – | – | – | – | – | – | – | – | – | – | – | – | – | – | – | pest or weed control at 31 g/ha [1, 14]: 10%; pest or weed control at 125 g/ha [1, 10]: 70%; pest or weed control at 31 g/ha [1, 15]: 10%; pest or weed control at 125 g/ha [1, 12]: 100%; pest or weed control at 31 g/ha [2, 14]: 30%; pest or weed control at 125 g/ha [2, 10]: 50%; pest or weed control at 31 g/ha [2, 15]: 10%; pest or weed control at 125 g/ha [2, 12]: 100%
12 | COc1nn(C)c(=O)c(-n2nc(-c3ccc(Br)cc3)cc2C)c1O [Compound 82] | 100 | – | 100 | – | 100 | – | 100 | – | – | – | – | – | 100 | 90 | 100 | 50 | –
13 | CCc1c(C)c(-c2ccc(Br)cc2)nn1-c1c(O)cnn(C)c1=O [Compound 83] | 100 | – | 100 | – | 100 | – | 70 | – | – | – | – | – | 90 | 0 | 60 | 0 | –
14 | Cc1cn(-c2ccc(C(F)(F)F)cc2)nc1-c1c(O)cnn(C)c1=O [Compound 85, 5-hydroxy-2-methyl-4-[4-methyl-1-[4-(trifluoromethyl)phenyl]-1H-pyrazol-3-yl]-3(2H)-pyridazinone] | – | – | – | – | – | – | – | – | – | – | – | – | – | – | – | – | pest or weed control at 31 g/ha [1, 14]: 0%; pest or weed control at 125 g/ha [1, 10]: 60%; pest or weed control at 31 g/ha [1, 15]: 0%; pest or weed control at 125 g/ha [1, 12]: 100%; pest or weed control at 31 g/ha [2, 14]: 0%; pest or weed control at 125 g/ha [2, 10]: 40%; pest or weed control at 31 g/ha [2, 15]: 10%; pest or weed control at 125 g/ha [2, 12]: 70%
15 | Cn1ncc(O)c(-c2nn(-c3ccc(C(F)(F)F)cc3)cc2Br)c1=O [Compound 87, 4-[4-bromo-1-[4-(trifluoromethyl)phenyl]-1H-pyrazol-3-yl]-5-hydroxy-2-methyl-3(2H)-pyridazinone] | – | – | – | – | – | – | – | – | – | – | – | – | – | – | – | – | pest or weed control at 31 g/ha [1, 14]: 20%; pest or weed control at 125 g/ha [1, 10]: 80%; pest or weed control at 31 g/ha [1, 15]: 20%; pest or weed control at 125 g/ha [1, 12]: 90%; pest or weed control at 31 g/ha [2, 14]: 10%; pest or weed control at 125 g/ha [2, 10]: 80%; pest or weed control at 31 g/ha [2, 15]: 20%; pest or weed control at 125 g/ha [2, 12]: 70%
